Experimental findings from ChEMBL document CHEMBL6109107, “Exploring the broad-spectrum activity of carbohydrate-based Iberin analogues: From anticancer effect to antioxidant properties” (Eur J Med Chem, 2025) are described below.

The structures appear in SMILES notation. pEC50, pIC50: −log10 of the molar value. The source made the active and inactive calls. No cut-off for these calls is given here.

Data set [1] deals with T-24. Briefly: Cytotoxicity against human T24 cells assessed as reduction in cell viability incubated for 72 hrs by resazurin dye based assay. It counts as functional. To be noted: T-24, 72 h. A general note: The colour change of resazurin is a common sign of viable cells or microbes.
A short description of data set [2]: Cytotoxicity against human HaCaT cells assessed as reduction in cell viability incubated for 72 hrs by resazurin dye based assay. It is filed as toxicity.
A short description of data set [3]: Cytotoxicity against human Arec32 cells assessed as cell viability by MTT assay. It is filed as toxicity, cell-based.
The subject of data set [4] is Arec32. Briefly: Induction of Nrf2 activity in human Arec32 cells assessed as drug concentration required to double luciferase expression incubated for 24 hrs by luminescence based plate reader analysis. It is filed as cell-based. To be noted: filed as activator.
Data set [5] in a line: Selectivity index, ratio of IC50 for human HaCaT cells to IC50 for human MeWo cells. It is filed as toxicity. As to conditions: HaCaT cells versus MeWo cells, read-out: Ratio IC50.
Data set [6] relates to A549. Briefly: Cytotoxicity against human A549 cells assessed as inhibition of cell growth incubated for 72 hrs by MTT assay. It counts as functional, cell-based. As to conditions: A549, 72 h.
The nature of data set [7]: Selectivity index, ratio of IC50 for human HaCaT cells to IC50 for human A549 cells. It is filed as toxicity. As to conditions: HaCaT cells versus A549 cells, read-out: Ratio IC50.
The test system of data set [8] is A549. Kind of data set: Cytotoxicity against human A549 cells assessed as reduction in cell viability incubated for 72 hrs by resazurin dye based assay. It counts as functional. As to conditions: A549, 72 h.
Data set [9] is described as follows: Selectivity index, ratio of IC50 for human HaCaT cells to IC50 for human T24 cells. It is filed as toxicity. As to conditions: HaCaT cells versus T24 cells, read-out: Ratio IC50.
In data set [10] the test system is MeWo. Briefly: Cytotoxicity against human MeWo cells assessed as reduction in cell viability incubated for 72 hrs by resazurin dye based assay. It is filed as functional.
Data set [11] relates to Arec32. Kind of data set: Induction of Nrf2 activity in human Arec32 cells assessed as increase in luciferase expression at >30 uM incubated for 24 hrs by luminescence based plate reader analysis. It is filed as cell-based.

With `CSCCCN=C=S`, the pIC50 in [1] is 4.84; in data set [6] it was 4.32; in data set [8], 4.51; in [10] it was 4.50. In addition, in data set [2], the IC50 at 72 h was 43.9 µM. In addition, in data set [3], the pEC50 is under 4.52. Further, the CD in [4] came to 2.94 µM. In addition, the selectivity ratio in data set [5] is 1.5; in data set [7] it was 1.7; in data set [9], 3.2.

For the molecule `CC(=O)OC[C@H]1O[C@@H](N=C=S)[C@H](OC(C)=O)[C@@H](Sc2ccccc2)[C@@H]1OC(C)=O`, the pIC50 in [1] is 4.71; in data set [8], 4.60; in data set [10], 4.54. In data set [2], the IC50 at 72 h was 23.2 µM. For the same molecule, the pEC50 in data set [3] is under 4.52. Moreover, the outcome in [11] was inactive. Besides, the figures for the selectivity ratio in data set [5], in data set [7] and in data set [9] were 0.9, 1 and 1.2, respectively.

Turning to `CC(=O)OC[C@H]1O[C@@H](N=C=S)[C@H](OC(C)=O)[C@@H]([S@+]([O-])c2ccccc2)[C@@H]1OC(C)=O`, the pIC50 in data set [1] was 4.31; in [8] it was 4.23; in [10], 4.24. Moreover, the IC50 at 72 h in data set [2] is 61.2 µM. Further, in data set [3], the pEC50 was under 4.52. The CD in data set [4] amounted to 2.09 µM. Besides, the selectivity ratio in data set [5] is 1.1; in data set [7] it was 1; in data set [9] it was 1.3.

In the case of `CC(=O)OC[C@H]1O[C@@H](N=C=S)[C@H](OC(C)=O)[C@@H](S(=O)(=O)c2ccccc2)[C@@H]1OC(C)=O`, the pIC50 in data set [1] was 4.77; in [8], 4.39; in data set [10] it was 4.64. Moreover, in data set [2], the IC50 at 72 h was determined as 27.5 µM. Also, the pEC50 in data set [3] was under 4.52. For the same molecule, the CD in data set [4] worked out at 2.09 µM. Further, the selectivity ratio in data set [5] was 1.2; in data set [7], 0.7; in data set [9], 1.6.

Turning to `CC(=O)OC[C@H]1O[C@@H](N=C=S)[C@H](OC(C)=O)[C@@H](OC(C)=O)[C@@H]1OC(C)=O`, the pIC50 in [1] was 4.31; in data set [8], 4.19; in data set [10] it was 4.24. For the same molecule, in data set [2], the IC50 at 72 h was 71.4 µM. The pEC50 in [3] was under 4.52. Further, the result in data set [11] was inactive. The selectivity ratio stood at 1.2 in data set [5], 1.1 in data set [7] and 1.5 in data set [9].

In the case of `CC[S+]([O-])[C@@H]1[C@@H](OC(C)=O)[C@H](N=C=S)O[C@H](COC(C)=O)[C@H]1OC(C)=O` (mixture of isomers), the negative-log IC50 (pIC50) in data set [1] is 3.95; in [8], 3.81; in [10], 3.93. Besides, the IC50 at 72 h in data set [2] was 141 µM. In addition, the pEC50 in [3] was under 4.52. Moreover, in data set [4], the CD is 6.32 µM. In addition, the selectivity ratio in [5] was 1.1; in data set [7], 0.9; in data set [9], 1.1.

As for `CC(=O)OC[C@H]1O[C@@H](N=C=S)[C@H](OC(C)=O)[C@@H]([S@@+]([O-])c2ccccc2)[C@@H]1OC(C)=O`, the pIC50 in [1] is 4.25; in data set [8], 4.13; in data set [10] it was 4.17. Moreover, in data set [2], the IC50 at 72 h worked out at 59.1 µM. In addition, in [3], the pEC50 is under 4.52. Moreover, the CD in data set [4] is 1.55 µM. The figures for the selectivity ratio in data set [5], in data set [7] and in [9] were 0.9, 0.8 and 1.1, respectively.

As to `CCS(=O)(=O)[C@@H]1[C@@H](OC(C)=O)[C@H](N=C=S)O[C@H](COC(C)=O)[C@H]1OC(C)=O`, the negative logarithm of the IC50 (pIC50) is 4.74 in data set [1], 4.26 in data set [8] and 4.48 in [10]. Besides, in data set [2], the IC50 at 72 h turned out to be 35.2 µM. Moreover, in data set [3], the pEC50 is under 4.52. The CD in [4] came out at 10.4 µM. Further, the selectivity ratio in data set [5] was determined as 1.1; in data set [7] it was 0.6; in [9] it was 2.

Take `CS[C@@H]1[C@@H](OC(C)=O)[C@H](N=C=S)O[C@H](COC(C)=O)[C@H]1OC(C)=O`: the values for the pIC50 in [1], in [8] and in data set [10] were 4.51, 4.32 and 4.33, respectively. For the same molecule, the IC50 at 72 h in [2] amounted to 45.3 µM. For the same molecule, in data set [3], the pEC50 was under 4.52. The result in data set [11] was inactive. Besides, the selectivity ratio in data set [5] came out at 1; in data set [7], 0.9; in data set [9], 1.5.

As for `Nc1ccn([C@@H]2O[C@H](CO)[C@@H](O)C2(F)F)c(=O)n1` [GEMCITABINE], the pIC50 is 5.68 in [1], 5.52 in data set [8] and 5.28 in [10]. The IC50 at 72 h in data set [2] is 7.1 µM. Also, the selectivity ratio in data set [5] is 1.6; in [7] it was 2.6; in data set [9], 4.2.

Turning to `CCS[C@@H]1[C@@H](OC(C)=O)[C@H](N=C=S)O[C@H](COC(C)=O)[C@H]1OC(C)=O`, the pIC50 in [1] was 4.50; in data set [8], 4.31; in [10], 4.30. In [2], the IC50 at 72 h was determined as 46.3 µM. Besides, the pEC50 in [3] is under 4.52. The result in data set [11] was inactive. Further, the selectivity ratio in data set [5] stood at 0.9; in data set [7] it was 0.9; in data set [9], 1.5.

As to `CC(=O)OC[C@H]1O[C@@H](N=C=S)[C@H](OC(C)=O)[C@@H](S(C)(=O)=O)[C@@H]1OC(C)=O`, the pIC50 is 4.70 in [1], 4.20 in [8] and 4.41 in [10]. Also, in data set [2], the IC50 at 72 h is 40.1 µM. For the same molecule, the pEC50 in data set [3] was under 4.52. Besides, in data set [4], the CD was determined as 6.21 µM. For the same molecule, the selectivity ratio stood at 1.2 in [5], 0.6 in data set [7] and 2 in [9].

Turning to `CS(=O)(=O)CCCN=C=S`, the values for the pIC50 in data set [1], in data set [8] and in data set [10] were 4.97, 4.60 and 4.53, respectively. Moreover, in data set [2], the IC50 at 72 h is 35.9 µM. Further, in data set [3], the pEC50 was under 4.52. Also, the CD in data set [4] came to 3.22 µM. Further, the selectivity ratio in data set [5] was determined as 1.3; in data set [7], 1.9; in data set [9], 3.3.

Take `CC(C)(C)c1cc(O)ccc1O` [E319]: the pEC50 in [3] was under 4.52. Moreover, the CD in data set [4] was 1.68 µM.

Regarding `CC(=O)OC[C@H]1O[C@@H](N=C=S)[C@H](OC(C)=O)[C@@H]([S+](C)[O-])[C@@H]1OC(C)=O` (mixture of isomers), the pIC50 in data set [1] is 3.80; in data set [8] it was 3.74; in data set [10] it was 3.75. In data set [2], the IC50 at 72 h is 180 µM. In addition, the pEC50 in [3] is under 4.52. For the same molecule, the CD in [4] was found to be 5.75 µM. In addition, the selectivity ratio in data set [5] worked out at 1; in [7] it was 1; in data set [9], 1.1.

As for `C[S+]([O-])CCCN=C=S` (racemic), the pIC50 in data set [1] is 4.91; in [6], 4.52; in data set [8], 4.68; in data set [10], 4.48. In addition, the IC50 at 72 h in data set [2] was 33 µM. Further, the negative-log EC50 (pEC50) in data set [3] was under 4.52. Also, in data set [4], the CD was found to be 3.12 µM. For the same molecule, the selectivity ratio in data set [5] worked out at 1; in data set [7], 1.8; in data set [9], 2.9.

One may read the pIC50 as −log10 of the IC50, conventionally taken in molar units. By IC50 is commonly meant the concentration at which inhibition is half-maximal. Usually pEC50 stands for the EC50 on a negative log10 scale, so that one unit is a factor of ten.
